Measured values published in PubChem BioAssay AID256 (DTP/NCI, 2004).
Toxic doses and inconclusive results are not listed. How the source made its calls: active means survival T/C of 150% or more; inactive means T/C below 125% in these data. Residues, ends and D or L forms follow the SMILES beside them. *: point of attachment. Cbz = O=C(OCc1ccccc1)*; Bn = c1ccc(C*)cc1; βAla = NCCC(=O)O

Tested on: CD2F1 mice, L1210 leukemia ip, survival T/C
Test: NCI In Vivo Anticancer Drug Screen. Data for tumor model L1210 Leukemia (intraperitoneal) in CD2F1 (CDF1) mice
Conditions: endpoint: mean survival time, higher = longer survival
Method: The antitumor activity of compounds was measured in mice bearing transplantable tumors. Survival or tumor size were measured and the results are expressed as the measurement made in the treated group (T) divided by the measurement made in the vehicle treated control group (C). The tumor model used in this assay is L1210 Leukemia (intraperitoneal) in CD2F1 (CDF1) mice

[1] = dose: 50.0 mg/kg/injection, schedule: Q01DX009 (ip), vehicle: saline with Tween-80
[2] = dose: 100.0 mg/kg/injection, schedule: Q01DX009 (ip), vehicle: saline with Tween-80
[3] = dose: 100.0 mg/kg/injection, schedule: Q04DX003 (ip), vehicle: saline with Tween-80
[4] = dose: 200.0 mg/kg/injection, schedule: Q01DX009 (ip), vehicle: saline with Tween-80
[5] = dose: 200.0 mg/kg/injection, schedule: Q04DX003 (ip), vehicle: saline with Tween-80
[6] = dose: 400.0 mg/kg/injection, schedule: Q01DX009 (ip), vehicle: saline with Tween-80
[7] = dose: 75.0 mg/kg/injection, schedule: Q01DX001 (ip), vehicle: saline
[8] = dose: 150.0 mg/kg/injection, schedule: Q01DX001 (ip), vehicle: saline
[9] = dose: 300.0 mg/kg/injection, schedule: Q01DX001 (ip), vehicle: saline

Measured: T/C

O=C1Cc2ccccc2O1
inactive: dose: 25.0 mg/kg/injection, schedule: Q01DX009 (ip), vehicle: saline 93 % of control | dose: 50.0 mg/kg/injection, schedule: Q01DX009 (ip), vehicle: saline 96 % of control | dose: 100.0 mg/kg/injection, schedule: Q01DX009 (ip), vehicle: saline 100 % of control | dose: 200.0 mg/kg/injection, schedule: Q01DX009 (ip), vehicle: saline 97 % of control

O=C1CCN(Cc2ccccc2)C(=O)N1
inactive: [1] 97 % of control | [2] 98 % of control | [3] 106 % of control | [4] 98 % of control | [5] 97 % of control

O=P1(OCCCCCl)NCCCO1 (stereo not drawn)
inactive: dose: 62.5 mg/kg/injection, schedule: Q01DX001 (ip), vehicle: water 103 % of control | dose: 125.0 mg/kg/injection, schedule: Q01DX001 (ip), vehicle: water 104 % of control | dose: 250.0 mg/kg/injection, schedule: Q01DX001 (ip), vehicle: water 103 % of control | dose: 500.0 mg/kg/injection, schedule: Q01DX001 (ip), vehicle: water 108 % of control | dose: 750.0 mg/kg/injection, schedule: Q01DX001 (ip), vehicle: water 101 % of control

COc1ccc(OC)c(NC(=O)NNC(=O)c2ccc(Cl)cc2Cl)c1
inactive: [2] 91 % of control | [4] 90 % of control | [6] 91 % of control

COc1cc(C)c(NC(C)=O)c([N+](=O)[O-])c1
inactive: [7] 100 % of control | [8] 95 % of control | [9] 95 % of control

CCCCCCCCCCCCCCCCCC(CCCCCCCC)CCCCCCCC
inactive: dose: 100.0 mg/kg/injection, schedule: Q01DX001 (ip), vehicle: saline 96 % of control | dose: 200.0 mg/kg/injection, schedule: Q01DX001 (ip), vehicle: saline 94 % of control | dose: 400.0 mg/kg/injection, schedule: Q01DX001 (ip), vehicle: saline 91 % of control

CN(C)N=Nc1c(F)cc(F)c(F)c1F
inactive: dose: 25.0 mg/kg/injection, schedule: Q01DX009 (ip), vehicle: saline with Tween-80 101 % of control | [1] 104 % of control | [2] 104 % of control

CCOC(=O)c1c(C)c2c(n1C)CCCC2=O
inactive: dose: 100.0 mg/kg/injection, schedule: Q04DX002 (ip), vehicle: saline with Tween-80 93 % of control | dose: 200.0 mg/kg/injection, schedule: Q04DX002 (ip), vehicle: saline with Tween-80 89 % of control | dose: 400.0 mg/kg/injection, schedule: Q04DX002 (ip), vehicle: saline with Tween-80 86 % of control

O=C(NCCNC(=O)Nc1ccc(Cl)cc1)Nc1ccc(Cl)cc1
inactive: [2] 105 % of control | [3] 88 % of control | [4] 107 % of control | [5] 90 % of control | [6] 96 % of control | dose: 400.0 mg/kg/injection, schedule: Q04DX003 (ip), vehicle: saline with Tween-80 88 % of control

NC(C(=O)O)C(CC(=O)O)C(=O)O (stereo not drawn)
inactive: dose: 100.0 mg/kg/injection, schedule: Q04DX002 (ip), vehicle: saline 111 % of control | dose: 200.0 mg/kg/injection, schedule: Q04DX002 (ip), vehicle: saline 106 % of control | dose: 400.0 mg/kg/injection, schedule: Q04DX002 (ip), vehicle: saline 106 % of control

COC(=O)C(CSCc1ccccc1)NC(=O)C(CSCc1ccccc1)NC(=O)CCNC(=O)OCc1ccccc1 (stereo not drawn) ({Cbz-βAla}-Cys(Bn)-Cys(Bn)-OMe; configuration not given here)
inactive: dose: 25.0 mg/kg/injection, schedule: Q01DX005 (ip), vehicle: water 103 % of control | dose: 50.0 mg/kg/injection, schedule: Q01DX005 (ip), vehicle: water 98 % of control | dose: 100.0 mg/kg/injection, schedule: Q01DX005 (ip), vehicle: water 106 % of control | dose: 200.0 mg/kg/injection, schedule: Q01DX005 (ip), vehicle: water 103 % of control | dose: 400.0 mg/kg/injection, schedule: Q01DX005 (ip), vehicle: water 105 % of control

O=C1C(Cl)=C(Cl)C(=O)c2ccccc21
inactive: dose: 5.0 mg/kg/injection, schedule: Q04DX003 (ip), vehicle: saline with Tween-80 98 % of control | dose: 10.0 mg/kg/injection, schedule: Q04DX003 (ip), vehicle: saline with Tween-80 93 % of control | dose: 20.0 mg/kg/injection, schedule: Q04DX003 (ip), vehicle: saline with Tween-80 101 % of control

CC(=O)OC1COC(n2c(O)c(N=NC(N)=S)c3cc([N+](=O)[O-])ccc32)C(OC(C)=O)C1OC(C)=O (stereo not drawn)
inactive: dose: 12.5 mg/kg/injection, schedule: Q01DX005 (ip), vehicle: other 96 % of control | dose: 25.0 mg/kg/injection, schedule: Q01DX005 (ip), vehicle: other 96 % of control | dose: 50.0 mg/kg/injection, schedule: Q01DX005 (ip), vehicle: other 92 % of control | dose: 100.0 mg/kg/injection, schedule: Q01DX005 (ip), vehicle: other 88 % of control

Nc1ncnc2c1ccn2C1OC(CO)CC1O (stereo not drawn)
inactive: [7] 103 % of control | [8] 100 % of control | [9] 109 % of control
